From PubChem BioAssay AID330 (DTP/NCI, 2004)
Values joined by “and” are separate entries in the source; they are usually repeats but may differ in a detail not shown here. Equal entries are not always repeated. Inconclusive results and toxic doses are left out.

Tested on: P388 leukemia ip, CD2F1 mice, survival T/C
Experiment: NCI In Vivo Anticancer Drug Screen. Data for tumor model P388 Leukemia (intraperitoneal) in CD2F1 (CDF1) mice
Settings: endpoint: median survival time, higher = longer survival
In short: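 Mice carrying the transplanted tumor received test compound or vehicle. Survival was recorded in each group, and the value is the treated-group measurement divided by that of the vehicle-treated control group.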

[1] = dose: 50.0 mg/kg/injection, schedule: Q01DX005 (ip), vehicle: saline with Tween-80
[2] = dose: 100.0 mg/kg/injection, schedule: Q01DX005 (ip), vehicle: saline with Tween-80
[3] = dose: 200.0 mg/kg/injection, schedule: Q01DX005 (ip), vehicle: saline with Tween-80

COc1ccncc1CCc1cnccc1OC
T/C (dose: 100.0 mg/kg/injection, schedule: Q04DX003 (ip), vehicle: saline): 99 % of control | T/C (dose: 200.0 mg/kg/injection, schedule: Q04DX003 (ip), vehicle: saline): 93 % of control | T/C (dose: 400.0 mg/kg/injection, schedule: Q04DX003 (ip), vehicle: saline): 90 % of control

[Cl][Sn]1([Cl])[N]2CCCCC2C2CCCC[N]21 (stereo not given)
T/C (dose: 100.0 mg/kg/injection, schedule: Q04DX003 (ip), vehicle: saline with Tween-80): 97 % of control | T/C (dose: 200.0 mg/kg/injection, schedule: Q04DX003 (ip), vehicle: saline with Tween-80): 99 % of control

NC(=S)N/N=C/c1c(Br)n(-c2ccccc2)c2ccccc12
T/C (dose: 100.0 mg/kg/injection, schedule: Q01DX001 (ip), vehicle: Klucel (hydroxypropylcellulose) (HPC)): 94 % of control | T/C (dose: 200.0 mg/kg/injection, schedule: Q01DX001 (ip), vehicle: Klucel (hydroxypropylcellulose) (HPC)): 98 % of control | T/C (dose: 400.0 mg/kg/injection, schedule: Q01DX001 (ip), vehicle: Klucel (hydroxypropylcellulose) (HPC)): 91 % of control

O=C(NN(CCO)CCO)c1ccccc1
T/C [1]: 100 % of control | T/C [2]: 105 % of control | T/C [3]: 100 % of control

CCC[CH2][Sn]([CH2]CCC)([S]CCS(=O)(=O)O)[S]CCS(=O)(=O)O
T/C (dose: 60.0 mg/kg/injection, schedule: Q01DX005 (ip), vehicle: Klucel (hydroxypropylcellulose) (HPC)): 100 % of control | T/C (dose: 120.0 mg/kg/injection, schedule: Q01DX005 (ip), vehicle: Klucel (hydroxypropylcellulose) (HPC)): 101 % of control | T/C (dose: 240.0 mg/kg/injection, schedule: Q01DX005 (ip), vehicle: Klucel (hydroxypropylcellulose) (HPC)): 99 % of control

CC(=O)c1c(-c2ccc(F)cc2)c(-c2ccc(F)cc2)nn(CCO)c1=O
T/C [1]: 98 % of control | T/C [2]: 100 % of control | T/C [3]: 98 % of control

NNS(=O)(=O)c1cc(C(=O)O)cc(C(=O)O)c1
T/C (dose: 100.0 mg/kg/injection, schedule: Q01DX001 (ip), vehicle: saline with Tween-80): 109 % of control | T/C (dose: 200.0 mg/kg/injection, schedule: Q01DX001 (ip), vehicle: saline with Tween-80): 100 % of control | T/C (dose: 400.0 mg/kg/injection, schedule: Q01DX001 (ip), vehicle: saline with Tween-80): 90 % of control

Clc1nnc(-c2ccccc2)c(-c2ccccc2)n1
T/C (dose: 25.0 mg/kg/injection, schedule: Q01DX009 (ip), vehicle: saline with Tween-80): 100 % of control | T/C (dose: 50.0 mg/kg/injection, schedule: Q01DX009 (ip), vehicle: saline with Tween-80): 100 % of control | T/C (dose: 100.0 mg/kg/injection, schedule: Q01DX009 (ip), vehicle: saline with Tween-80): 100 % of control

CN1CCC(c2ccccc2)(C(O)(c2ccccc2)c2ccccc2)CC1
T/C (dose: 12.5 mg/kg/injection, schedule: Q01DX005 (ip), vehicle: saline with Tween-80): 90 % of control | T/C (dose: 25.0 mg/kg/injection, schedule: Q01DX005 (ip), vehicle: saline with Tween-80): 100 % of control | T/C [1]: 100 % of control and 111 % of control | T/C [2]: 107 % of control

CCCSc1ccc2nc(NC(=O)OC)[nH]c2c1
T/C (dose: 60.0 mg/kg/injection, schedule: Q01DX005 (ip), vehicle: saline with Tween-80): 106 % of control and 111 % of control | T/C (dose: 120.0 mg/kg/injection, schedule: Q01DX005 (ip), vehicle: saline with Tween-80): 109 % of control and 112 % of control | T/C (dose: 480.0 mg/kg/injection, schedule: Q01DX005 (ip), vehicle: saline with Tween-80): 156 % of control

O=C(NCCCC1NC(=O)/C(=C(O)/C=C/C=C/c2ccccc2)C1=O)OCc1ccccc1 (stereo not given)
T/C [1]: 88 % of control | T/C [3]: 92 % of control

[N-]=[N+]=Nc1ccc(C(=O)ON2C(=O)CCC2=O)cc1
T/C [1]: 97 % of control | T/C [2]: 105 % of control | T/C [3]: 119 % of control

C/C=C/N=NNc1ccc(OC)cc1
T/C (dose: 100.0 mg/kg/injection, schedule: Q04DX003 (ip), vehicle: saline + Tween-80 + alcohol): 105 % of control | T/C (dose: 200.0 mg/kg/injection, schedule: Q04DX003 (ip), vehicle: saline + Tween-80 + alcohol): 99 % of control

CC1CCC2(OC1)OC1C(O)C3C4CCC5CC(OC6OC(CO)C(OC7OC(CO)C(O)C(OC8OCC(O)C(O)C8O)C7OC7OC(CO)C(O)C(OC8OC(CO)C(O)C(O)C8O)C7O)C(O)C6O)C(O)CC5(C)C4CCC3(C)C1C2C (stereo not given)
T/C (dose: 0.62 mg/kg/injection, schedule: Q01DX009 (ip), vehicle: saline): 101 % of control | T/C (dose: 1.25 mg/kg/injection, schedule: Q01DX009 (ip), vehicle: saline): 98 % of control | T/C (dose: 2.5 mg/kg/injection, schedule: Q01DX009 (ip), vehicle: saline): 93 % of control | T/C (dose: 5.0 mg/kg/injection, schedule: Q01DX009 (ip), vehicle: saline): 87 % of control | T/C (dose: 40.0 mg/kg/injection, schedule: Q01DX009 (ip), vehicle: saline): 86 % of control

COC(=O)c1ccc(Nc2cn[nH]n2)cc1
T/C (dose: 50.0 mg/kg/injection, schedule: Q01DX005 (ip), vehicle: Klucel (hydroxypropylcellulose) (HPC)): 101 % of control | T/C (dose: 100.0 mg/kg/injection, schedule: Q01DX005 (ip), vehicle: Klucel (hydroxypropylcellulose) (HPC)): 100 % of control | T/C (dose: 200.0 mg/kg/injection, schedule: Q01DX005 (ip), vehicle: Klucel (hydroxypropylcellulose) (HPC)): 98 % of control
